In patent US11155544B2, “Heterocycle comprising tyrosine kinase inhibitors” (Principia Biopharma Inc., priority 2015, dated 2021):

These compounds were tested against human recombinant BTK (Homo sapiens (Human), UniProt Q06187) (assay: BTK Enzymatic Activity Assay (Caliper-based kinase assay)). Conditions: human recombinant BTK (0.5 nM), ATP (16 μM), peptide substrate (1 μM), room temperature for 3 h.
Type: biochemical
Protocol: A Caliper-based kinase assay (Caliper Life Sciences, Hopkinton, Mass.) was used to measure inhibition of BTK kinase activity of a compound of the present disclosure. Serial dilutions of test compounds were incubated with human recombinant BTK (0.5 nM), ATP (16 μM) and a phosphoacceptor peptide substrate FAM-GEEPLYWSFPAKKK-NH2 (1 μM) at room temperature for 3 h. The reaction was then terminated with EDTA, final concentration 20 mM and the phosphorylated reaction product was quantified on a Caliper Desktop Profiler (Caliper LabChip 3000). Percent inhibition was calculated for each compound dilution and the concentration that produced 50% inhibition was calculated. This value is presented as the IC50.

Sequence of human recombinant BTK (Q06187 whole entry): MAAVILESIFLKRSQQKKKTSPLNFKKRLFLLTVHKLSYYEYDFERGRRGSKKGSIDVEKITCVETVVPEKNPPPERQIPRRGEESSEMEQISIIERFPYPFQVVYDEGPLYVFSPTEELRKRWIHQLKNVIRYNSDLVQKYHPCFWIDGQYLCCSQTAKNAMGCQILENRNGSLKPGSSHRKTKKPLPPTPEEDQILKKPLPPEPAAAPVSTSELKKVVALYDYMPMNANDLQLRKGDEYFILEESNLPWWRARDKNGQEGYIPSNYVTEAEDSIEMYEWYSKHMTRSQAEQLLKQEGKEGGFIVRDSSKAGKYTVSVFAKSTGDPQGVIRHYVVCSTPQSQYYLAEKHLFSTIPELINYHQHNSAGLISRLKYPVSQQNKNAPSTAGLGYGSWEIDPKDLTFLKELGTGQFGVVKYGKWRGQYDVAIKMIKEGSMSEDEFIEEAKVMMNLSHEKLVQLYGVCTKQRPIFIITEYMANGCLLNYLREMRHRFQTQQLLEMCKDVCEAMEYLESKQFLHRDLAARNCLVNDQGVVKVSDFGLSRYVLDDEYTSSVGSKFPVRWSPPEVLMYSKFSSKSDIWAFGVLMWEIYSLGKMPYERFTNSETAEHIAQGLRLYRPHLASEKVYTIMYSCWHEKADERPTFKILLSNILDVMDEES

| SMILES | IC50 [nM] |
| --- | --- |
| CC(C)(C=C(C#N)C(=O)N1CCC[C@@H](c2nc(-c3ccc(Oc4ccccc4)cc3F)c3c(N)nccn23)C1)N1CCN(C2COC2)CC1 [Compound 2, (R)-2-(3-(8-amino-1-(2-fluoro-4-phenoxyphenyl)imidazo[1,5-a]pyrazin-3-yl)piperidine-1-carbonyl)-4-methyl-4-(4-(oxetan-3-yl)piperazin-1-yl)pent-2-enenitrile] | 1.9 |
| CC(C)(C=C(C#N)C(=O)N1CCC[C@H]1Cn1nc(-c2ccc(C(=O)Nc3ccccn3)cc2)c2c(N)nccc21)N1CCN(C2COC2)CC1 [Compound 15, (S)-4-(4-amino-1-((1-(2-cyano-4-methyl-4-(4-(oxetan-3-yl)piperazin-1-yl)pent-2-enoyl)pyrrolidin-2-yl)methyl)-1H-pyrazolo[4,3-c]pyridin-3-yl)-N-(pyridin-2-yl)benzamide] | 22.4 |
| CN1CCN(C(C)(C)C=C(C#N)C(=O)N2CCC[C@H]2Cn2nc(-c3ccc(C(=O)Nc4ccccn4)cc3)c3c(N)nccc32)CC1 [Compound 20, (S)-4-(4-amino-1-((1-(2-cyano-4-methyl-4-(4-methylpiperazin-1-yl)pent-2-enoyl)pyrrolidin-2-yl)methyl)-1H-pyrazolo[4,3-c]pyridin-3-yl)-N-(pyridin-2-yl)benzamide] | 19.1 |
| CC(C)(C=C(C#N)C(=O)N1CCC[C@H]1Cn1nc(-c2ccc(C(=O)Nc3ccccn3)cc2)c2c(N)nccc21)N1CCOCC1 [Compound 21, (S)-4-(4-amino-1-((1-(2-cyano-4-methyl-4-morpholinopent-2-enoyl)pyrrolidin-2-yl)methyl)-1H-pyrazolo[4,3-c]pyridin-3-yl)-N-(pyridin-2-yl)benzamide] | 18.6 |
| CC(C)(C=C(C#N)C(=O)N1CCC[C@@H](n2nc(-c3ccc(Oc4c(F)cccc4F)cc3)c3c(N)nccc32)C1)N1CCN(C2COC2)CC1 [Compound 28, (R)-2-(3-(4-amino-3-(4-(2,6-difluorophenoxy)phenyl)-1H-pyrazolo[4,3-c]pyridin-1-yl)piperidine-1-carbonyl)-4-methyl-4-(4-(oxetan-3-yl)piperazin-1-yl)pent-2-enenitrile] | 0.9 |
| CC(C)(C=C(C#N)C(=O)N1CCC[C@@H](n2nc(-c3ccc(Oc4cccc(F)c4F)cc3)c3c(N)nccc32)C1)N1CCN(C2COC2)CC1 [Compound 29, (R)-2-(3-(4-amino-3-(4-(2,3-difluorophenoxy)phenyl)-1H-pyrazolo[4,3-c]pyridin-1-yl)piperidine-1-carbonyl)-4-methyl-4-(4-(oxetan-3-yl)piperazin-1-yl)pent-2-enenitrile] | 0.8 |
| CCN1CCN(C(C)(C)C=C(C#N)C(=O)N2CCC[C@H]2Cn2nc(-c3ccc(Oc4ccccc4)cc3F)c3c(N)nccc32)CC1=O [Compound 31, (S)-2-(2-((4-amino-3-(2-fluoro-4-phenoxyphenyl)-1H-pyrazolo[4,3-c]pyridin-1-yl)methyl)pyrrolidine-1-carbonyl)-4-(4-ethyl-3-oxopiperazin-1-yl)-4-methylpent-2-enenitrile] | 11.5 |
| CN1CCN(C(C)(C)C=C(C#N)C(=O)N2CCC[C@H]2Cn2nc(-c3ccc(Oc4ccccc4)cc3F)c3c(N)nccc32)CC1=O [Compound 32, (S)-2-(2-((4-amino-3-(2-fluoro-4-phenoxyphenyl)-1H-pyrazolo[4,3-c]pyridin-1-yl)methyl)pyrrolidine-1-carbonyl)-4-methyl-4-(4-methyl-3-oxopiperazin-1-yl)pent-2-enenitrile] | 8.9 |
| CC(C)(C=C(C#N)C(=O)N1CCC[C@@H](n2nc(-c3ccc(Oc4ccccc4)cc3)c3c(N)nccc32)C1)N1CCN(C2COC2)CC1 [Compound 34, (R)-2-(3-(4-amino-3-(4-phenoxyphenyl)-1H-pyrazolo[4,3-c]pyridin-1-yl)piperidine-1-carbonyl)-4-methyl-4-(4-(oxetan-3-yl)piperazin-1-yl)pent-2-enenitrile] | 1.9 |
| CC(C)(C=C(C#N)C(=O)N1CCC[C@@H](c2nc(-c3ccc(Oc4ccccc4)cc3)c3c(N)nccn23)C1)N1CCN(C2COC2)CC1 [Compound 35, (R)-2-(3-(8-amino-1-(4-phenoxyphenyl)imidazo[1,5-a]pyrazin-3-yl)piperidine-1-carbonyl)-4-methyl-4-(4-(oxetan-3-yl)piperazin-1-yl)pent-2-enenitrile] | 2.1 |
| CC(C)(C=C(C#N)C(=O)N1CCC[C@@H](n2nc(-c3ccc(Oc4ccccc4)cc3)c3c(N)nccc32)C1)N1CCN(C2(C)COC2)CC1 [Compound 39, (R)-2-(3-(4-amino-3-(4-phenoxyphenyl)-1H-pyrazolo[4,3-c]pyridin-1-yl)piperidine-1-carbonyl)-4-methyl-4-(4-(3-methyloxetan-3-yl)piperazin-1-yl)pent-2-enenitrile] | 1.3 |
| CCN1CCN(C(C)(C)C=C(C#N)C(=O)N2CCC[C@@H](n3nc(-c4ccc(Oc5ccccc5)cc4F)c4c(N)nccc43)C2)CC1=O [Compound 40, (R)-2-(3-(4-amino-3-(2-fluoro-4-phenoxyphenyl)-1H-pyrazolo[4,3-c]pyridin-1-yl)piperidine-1-carbonyl)-4-methyl-4-(4-ethyl-3-oxopiperazin-1-yl)pent-2-enenitrile] | 2.4 |
| CCN1CCN(C(C)(C)C=C(C#N)C(=O)N2CCC[C@@H](n3nc(-c4ccc(Oc5ccccc5)cc4)c4c(N)nccc43)C2)CC1=O [Compound 41, (R)-2-(3-(4-amino-3-(4-phenoxyphenyl)-1H-pyrazolo[4,3-c]pyridin-1-yl)piperidine-1-carbonyl)-4-(4-ethyl-3-oxopiperazin-1-yl)-4-methylpent-2-enenitrile] | 2.4 |
| CC1(C=C(C#N)C(=O)N2CCC[C@@H](n3nc(-c4ccc(Oc5ccccc5)cc4)c4c(N)nccc43)C2)CCN(C2COC2)CC1 [Compound 42, (R)-2-(3-(4-amino-3-(4-phenoxyphenyl)-1H-pyrazolo[4,3-c]pyridin-1-yl)piperidine-1-carbonyl)-3-(4-methyl-1-(oxetan-3-yl)piperidin-4-yl)acrylonitrile] | 2.6 |
| CC1(C=C(C#N)C(=O)N2CCC[C@@H](n3nc(-c4ccc(Oc5ccccc5)cc4)c4c(N)nccc43)C2)CCOCC1 [Compound 43, (R)-2-(3-(4-amino-3-(4-phenoxyphenyl)-1H-pyrazolo[4,3-c]pyridin-1-yl)piperidine-1-carbonyl)-3-(4-methyltetrahydro-2H-pyran-4-yl)acrylonitrile] | 2 |
| CN1CCN(C(C)(C)C=C(C#N)C(=O)N2CCC[C@@H](n3nc(-c4ccc(C(=O)Nc5ccccn5)cc4)c4c(N)nccc43)C2)CC1 [Compound 45, (R)-4-(4-amino-1-(1-(2-cyano-4-methyl-4-(4-methylpiperazin-1-yl)pent-2-enoyl)piperidin-3-yl)-1H-pyrazolo[4,3-c]pyridin-3-yl)-N-(pyridin-2-yl)benzamide] | 4.6 |
| CN(C1COC1)C(C)(C)C=C(C#N)C(=O)N1CCC[C@@H](n2nc(-c3ccc(C(=O)Nc4ccccn4)cc3)c3c(N)nccc32)C1 [Compound 46, (R)-4-(4-amino-1-(1-(2-cyano-4-methyl-4-(methyl(oxetan-3-yl)amino)pent-2-enoyl)piperidin-3-yl)-1H-pyrazolo[4,3-c]pyridin-3-yl)-N-(pyridin-2-yl)benzamide] | 2.1 |
| CC(C)(C=C(C#N)C(=O)N1CCC[C@@H](n2nc(-c3ccc(C(=O)Nc4ccccn4)cc3)c3c(N)nccc32)C1)N1CCN(C2COC2)CC1 [Compound 47, (R)-4-(4-amino-1-(1-(2-cyano-4-methyl-4-(4-(oxetan-3-yl)piperazin-1-yl)pent-2-enoyl)piperidin-3-yl)-1H-pyrazolo[4,3-c]pyridin-3-yl)-N-(pyridin-2-yl)benzamide] | 4.1 |
| CC1(C=C(C#N)C(=O)N2CCC[C@@H](n3nc(-c4ccc(Oc5ccccc5)cc4F)c4c(N)nccc43)C2)CCOCC1 [Compound 48, (R)-2-(3-(4-amino-3-(2-fluoro-4-phenoxyphenyl)-1H-pyrazolo[4,3-c]pyridin-1-yl)piperidine-1-carbonyl)-3-(4-methyltetrahydro-2H-pyran-4-yl)acrylonitrile] | 3.1 |
| CC1(C=C(C#N)C(=O)N2CCC[C@@H](n3nc(-c4ccc(Oc5ccccc5)cc4F)c4c(N)nccc43)C2)CCN(C2COC2)CC1 [Compound 49, (R)-2-(3-(4-amino-3-(2-fluoro-4-phenoxyphenyl)-1H-pyrazolo[4,3-c]pyridin-1-yl)piperidine-1-carbonyl)-3-(4-methyl-1-(oxetan-3-yl)piperidin-4-yl)acrylonitrile] | 1.8 |
| CC(C)(C=C(C#N)C(=O)N1CCC[C@@H](n2nc(-c3ccc(C(=O)Nc4cc(F)ccn4)cc3)c3c(N)nccc32)C1)N1CCN(C2COC2)CC1 [Compound 50, (R)-4-(4-amino-1-(1-(2-cyano-4-methyl-4-(4-(oxetan-3-yl)piperazin-1-yl)pent-2-enoyl)piperidin-3-yl)-1H-pyrazolo[4,3-c]pyridin-3-yl)-N-(4-fluoropyridin-2-yl)benzamide] | 4.2 |
| CN1CCN(C(C)(C)C=C(C#N)C(=O)N2CCC[C@@H](c3nc(-c4ccc(Oc5ccccc5)cc4)c4c(N)nccn34)C2)CC1=O [Compound 52, (R)-2-(3-(8-amino-1-(4-phenoxyphenyl)imidazo[1,5-a]pyrazin-3-yl)piperidine-1-carbonyl)-4-methyl-4-(4-methyl-3-oxopiperazin-1-yl)pent-2-enenitrile] | 1.8 |
| CC1(C=C(C#N)C(=O)N2CCC[C@@H](c3nc(-c4ccc(Oc5ccccc5)cc4F)c4c(N)nccn34)C2)CCOCC1 [Compound 53, (R)-2-(3-(8-amino-1-(2-fluoro-4-phenoxyphenyl)imidazo[1,5-a]pyrazin-3-yl)piperidine-1-carbonyl)-3-(4-methyltetrahydro-2H-pyran-4-yl)acrylonitrile] | 2 |
